Key:
NK cells [1] = assay: NK cell increase rate by flow cytometry (FACS, CD3-FITC/CD56-PE); assay type: cell-based, human; conditions: for NK (share of cells by FACS), Table 3 / NKT (share of cells by FACS), Table 3: 10 mg/L in NK cell culture medium of Example 1, 21 days
Protocol: Flow Cytometry (FACS analysis) analysis was performed to confirm the NK cell increase rate. Specifically, NK cells were cultured for 21 days in a medium containing 10 mg/L each of Test Example 1, Example 1 (untreated), and Alloferon 1 to 4 in Example 1. Cells before and after culture were collected by centrifugation at 1,400 rpm for 5minutes, and the collected cells were washed twice using PBS. Then, the cells were suspended in 1 ml of PBS, and the number of living cells was measured through Trypan blue staining. The cells were dispensed into FACS tubes at 1×10^6 cells/tube, and 2 ml of PBS was added. Then, centrifugation was performed at 400 g and 4° C. for 5 minutes, and the supernatant excluding cells was removed. 100 μl of 1% albumin was added to the remaining cell pellet, and antibodies were added and mixed with PBS. NK cells were treated with antibodies (CD3-FITC, CD56-PE), reacted in a light shielding state for 30 minutes, and then the cells were washed twice with PBS. NK cells were suspended in an appropriate amount of PBS, and then the data were compared and analyzed using FACSVerse (BD Biosciences, San Diego, CA, USA).

NK cells [2] = assay: Cell proliferation assay (incorporation of [3H]-thymidine), NK cell culture with added alloferon; assay type: cell-based, human; conditions: 0.1 to 100 mg/L tested, cultured 21 days, FIG. 3
Protocol: 30 ml of blood was collected from a human blood donor, RosetteSep NK enrichment antibody cocktail (50 ul/ml) was added thereto, and then diluted 1:1 v/v with phosphate buffer solution (PBS). The blood was centrifuged at 1600 rpm for 20 minutes using a density gradient centrifugation (Ficoll-Plaque) to separate the cell layer containing NK cells. The process of washing and centrifuging this with PBS was repeated twice. Then, the number of cells was counted by staining with trypan blue, and the average number of cells obtained was 1.6˜3.0×10^5 cell/ml, and the cells were cultured in NK cell culture medium.
The NK cell culture medium used was a combination of various substances that were conventionally known to be necessary for NK culture. […] This was used as the NK cell culture medium of Example 1, to which alloferon was further mixed and used at 0.1 to 100 mg/L as needed. […]
Specifically, NK cells (1×10^5 cells/ml) were placed in 96-well plates, and then treated with 10 mg/L each of alloferons 1 to 4 in the NK cell culture medium of Example 1, and then cultured in an environment at 5% CO2, 37° C. for 48 hours or 21 days. […] After that, the radioactivity was measured using 1450 MicroBeta TriLux (PerkinElmer Life and Analytical Sciences).

NK cells [3] = assay: NK cell activation receptor (NKp30, NKp44, NKp46) and perforin expression by FACS; assay type: cell-based, human; conditions: for NKp30 expression / NKp44 expression / NKp46 expression / Perforin expression: NK cells proliferated 21 days, 10 mg/L in NK medium
Protocol: Based on the results of Test Example 3, receptor expression was confirmed and compared to measure the activity of NK cells. Specifically, as in Test Example 3, NK cells were cultured in each medium, and in order to measure the activity of NK cells proliferated for 21 days, the proliferated NK cells were isolated by flow cytometry. The expression of activating markers for these cells was further confirmed. The cultured NK cells were washed twice using PBS, then dispensed into a FACS tube at 1×10^6 cells/tube, and 2 ml of PBS was added. Then, centrifugation was performed at 400 g and 4° C. for 5 minutes, and the supernatant excluding cells was removed. 100 μl of 1% albumin was added to the remaining cell pellet, sorted using antibodies (CD3-FITC, CD56-PE) together with PBS, and then isolated according to surface markers. In addition to the isolated cells, NK cells were treated with antibodies (Anti-NKp30, anti-NKp44, anti NKp46, and Perforin) to confirm the expression of activating receptors (NKp30, NKp44, NKp46) and Perforin on the surface of NK cells, and reacted in a light shielding state for 30 minutes, and the cells were washed twice again using PBS. NK cells were suspended in an appropriate amount of PBS, and the data were compared and analyzed using FACS AriaII (BD Biosciences, San Diego, CA, USA).

NK cells [4] = assay: Co-treatment of alloferon and other interleukins, NK cell proliferation; assay type: cell-based, human; conditions: only alloferon 1 added at 10 mg/L, 21 days, FIG. 4
Protocol: Specifically, NK cells (1×10^5 cells/ml) were placed in 96-well plates, and then treated with 10 mg/L each of alloferons 1 to 4 in the NK cell culture medium of Example 1, and then cultured in an environment at 5% CO2, 37° C. for 48 hours or 21 days. After the culture, [^3H]-thymidine (37 mBq) was added at 0.2 μCi per well and cultured for 8 hours. Both cells and medium were transferred to a glass fiber filter (size 90.120 mm; Wallac, Turkr, Finland) using a 96-well harvester. After drying the filter, a scintillator sheet (Meltilex, Wallac) was melted to coat the filter. After that, the radioactivity was measured using 1450 MicroBeta TriLux (PerkinElmer Life and Analytical Sciences).
In order to identify factors that imparts the influence other than alloferon during NK cell culture, the NK cell proliferation effect was confirmed after co-treatment with various combinations of interleukins. Except for the medium composition, the NK cell culture method was the same as in Test Example 1, and the cells were cultured for 21 days (*** random period).

NK cells [5] = assay: IFN-gamma secretion of NK cells (Human IFN-y ELISA); assay type: cell-based; conditions: with IL-2 10 mg/L in typical medium, 48 hours; for IFN-r, Table 6: alloferon 100 mg/L
Protocol: IFN-r is an indicator of the activity of NK cells, and it is considered as the secretion amount is higher, the cytotoxicity is higher and the differentiation ability increases.
IFN-y secreted from NK cells was measured in the culture medium in which the cells were cultured, using a Human IFN-y ELISA kit (BD Biosciences, San Diego, CA, USA). 100 μl of capture antibody diluted in coating buffer was added to each well of a 96-well plate for ELISA, then sealed and left overnight at 4° C. It was washed three times using wash buffer, and all remaining buffer was removed. 200 μl of assay diluent was added to each well and reacted at room temperature for 1 hour for blocking. It was washed again three times using wash buffer, and all remaining buffer was removed. 100 μl of each prepared IFN-y standard and culture supernatants were added, the plate was sealed, and the reaction was performed at room temperature for 2 hours. It was washed 5 times using wash buffer, and all remaining buffer was removed. 100 μl of Working detector (Detection Antibody+SAv-HRP reagent) was added to each well, the plate was sealed, and reaction was performed at room temperature for 1 hour. It was washed 7 times using wash buffer, and all remaining buffer was removed. 100 μl of Substrate solution was added to each well and the reaction was performed at room temperature while shielding light for 30 minutes. 50 μl of Stop solution was added to each well, and the absorbance was measured at 450 nm within 30 minutes.

[6] = after culture (day 21), 10 mg/L in NK cell culture medium of Example 1

Sequence	NK (share of cells by FACS), Table 3 (NK cells [1])	NKT (share of cells by FACS), Table 3 (NK cells [1])	NKp30 expression (NK cells [3])	NKp44 expression (NK cells [3])	NKp46 expression (NK cells [3])	Perforin expression (NK cells [3])	IFN-r, Table 6 (NK cells [5])	further results
HGVSGHGQHGVHG (engineered from known peptides) [Alloferon 1]	74.7%	6.5%	57.4%	60.3%	88.4%	99.8%	6.32 µg/L	increase in number of NK cells compared to typical medium (RPMI) (NK cells [1]; 10 mg/L, day 0 to day 21): 1,430 times; increase of NK cells (NK cells [1]; 10 mg/L, day 0 to day 21): 8,790 fold; increase of NKT cells (NK cells [1]; 10 mg/L, day 0 to day 21): 560 fold; NK (share of cells by FACS) (NK cells [1]; [6]): 74.7%; NKT (share of cells by FACS) (NK cells [1]; [6]): 6.5%; NK (share of cells by FACS) (NK cells [1]; before culture (day 0)): 12.2%; NKT (share of cells by FACS) (NK cells [1]; before culture (day 0)): 1.7%; concentration at which the maximum amount of NK cells was reached (NK cells [2]): 10 mg/L; NK activity versus typical medium or NK cell culture medium of Example 1 (NK cells [3]; 21 days culture, FIG. 6 / Table 4): higher NK activity; NK cell proliferation (NK cells [4]): NK cell proliferation was induced; IFN-r (NK cells [5]; alloferon 1 0.1 mg/L): 0.13 µg/L; IFN-r (NK cells [5]; alloferon 1 5 mg/L): 1.82 µg/L; IFN-r (NK cells [5]; alloferon 1 10 mg/L): 2.33 µg/L; IFN-r (NK cells [5]; alloferon 1 50 mg/L): 4.86 µg/L; IFN-r (NK cells [5]; alloferon 1 100 mg/L): 6.32 µg/L
GVSGHGQHGVHG (engineered from known peptides) [Alloferon 2]	73.8%	12.4%	53.2%	50.9%	78.6%	99.9%	4.87 µg/L	
SGHGQHGV (engineered from known peptides) [Alloferon 3]	69.7%	13.2%	47.8%	51.3%	69.1%	90.4%	3.31 µg/L	
VSGHGQHGVH (engineered from known peptides) [Alloferon 4]	71.5%	8.4%	61.1%	68.2%	82.5%	99.8%	5.84 µg/L	

Source: patent publication US20250109381A1, “COMPOSITION FOR CULTRING NK CELLS, COMPRISING ALLOFERON, AND METHOD FOR CULTURING NK CELLS USING SAME” (NK MEDICS INC., priority 2022, published 2025)
